Source: US8802711B2, “TRPV1 antagonists” (AbbVie Inc., priority 2011, dated 2014)
pIC50: −log10 of the molar value. Where two headings read alike, the source gives them in different places.

Tests used:
[1] = target: T1, human TRPV1 receptor (hTRPV1) (Homo sapiens (Human), UniProt Q8NER1); experiment: Acid activation assay (pH 5.0, FLIPR intracellular Ca2+); assay type: cell-based; settings: 37.5 μM antagonist, percentage of the maximal pH 5.0-induced response remaining; for remaining activity at 37.5 µM: read-out: hTRPV1 H+ (max % remain)
Outline: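 Antagonism of acid-evoked Ca2+ influx measured by FLIPR Calcium-4 fluorescence after a pH 5.0 DPBS/MES stimulus, with compounds preincubated 3 min over 12 half-log concentrations. Cells: stable hTRPV1-expressing 1321N1 line, dye-loaded 90–120 min in the dark at 25 °C.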

[2] = target: T1, human TRPV1 receptor (hTRPV1); experiment: Capsaicin activation assay (FLIPR intracellular Ca2+); assay type: cell-based; settings: inhibition of capsaicin-induced intracellular Ca2+ increase, read-out: hTRPV1 cap IC50
Outline: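 Antagonism measured as [Ca2+]i fluorescence on FLIPR Tetra: compounds given 3 min ahead of capsaicin, added as 200 nM (4×), to dye-loaded hTRPV1-HEK293 cells. Response taken as baseline-subtracted peak, normalized to the 50 nM capsaicin control; 12-point one-third-log titrations.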

Sprague-Dawley rats = experiment: Rat tail immersion assay (noxious thermosensation); assay type: in vivo; settings: for % Increase in tail withdrawal latency / change in vivo at 100 µmol/kg: rat, 100 μmol/kg oral, one hour post dosing, 55° C. water bath, relative to vehicle; for change in vivo at 100 µmol/kg: 1 h
Description: Adult male Sprague-Dawley rats (250-300 g body weight, Charles River Laboratories, Portage, Mich.) were used. Animal handling and experimental protocols were approved by the Institutional Animal Care and Use Committee (IACUC) at Abbott Laboratories. For all surgical procedures, animals were maintained under isoflurane anesthesia (4-5% to induce, 1-3% to maintain), and the incision sites were sterilized using a 10% povidone-iodine solution prior to and after surgeries.
Compounds were tested for their effects on noxious thermosensation using the tail immersion assay. Testing was performed one hour following oral administration of 100 μmol/kg of the compound in 10% ethanol/20% Tween-80/70% PEG-400 (2 mL/kg). Morphine (6 mg/kg) was administered interperitoneally (i.p.) using saline (2 mL/kg) as the vehicle. For testing, a circulating water bath was heated to 55° C. Thirty to sixty minutes post dosing, the rats were handled for a few seconds to calm them down and then cupped with their back against the tester's hand at a slight angle with head facing away from the tester. With rat in one hand and a 0.01 second stopwatch in the other hand, the tail was quickly immersed 6-8 cm in the water bath or to a distance leaving 2-3 cm of tail out of water. The timer was started simultaneously. When the rat flinched or attempted withdrawal, timer was immediately stopped and the rat's tail was quickly removed from water bath. This response latency (in seconds) was recorded. Process was repeated 3 times with 3-4 minutes between readings and the average response latency was calculated.
For a given example, a percent increase in the average response latency (in seconds) for tail withdrawal relative to a vehicle control was determined. % increase=[(tc−tv)/tv]×100%
tc=response latency (in seconds) with oral dosing of compounds
tv=response latency (in seconds) with oral dosing of vehicle
The % increases in tail withdrawal latency relative to vehicle control are divided into the following categories: […]

[3] = Table 1, HEK293 cells expressing human TRPV1
[4] = read-out: % Increase in tail withdrawal latency

T1 sequence (Q8NER1 whole entry): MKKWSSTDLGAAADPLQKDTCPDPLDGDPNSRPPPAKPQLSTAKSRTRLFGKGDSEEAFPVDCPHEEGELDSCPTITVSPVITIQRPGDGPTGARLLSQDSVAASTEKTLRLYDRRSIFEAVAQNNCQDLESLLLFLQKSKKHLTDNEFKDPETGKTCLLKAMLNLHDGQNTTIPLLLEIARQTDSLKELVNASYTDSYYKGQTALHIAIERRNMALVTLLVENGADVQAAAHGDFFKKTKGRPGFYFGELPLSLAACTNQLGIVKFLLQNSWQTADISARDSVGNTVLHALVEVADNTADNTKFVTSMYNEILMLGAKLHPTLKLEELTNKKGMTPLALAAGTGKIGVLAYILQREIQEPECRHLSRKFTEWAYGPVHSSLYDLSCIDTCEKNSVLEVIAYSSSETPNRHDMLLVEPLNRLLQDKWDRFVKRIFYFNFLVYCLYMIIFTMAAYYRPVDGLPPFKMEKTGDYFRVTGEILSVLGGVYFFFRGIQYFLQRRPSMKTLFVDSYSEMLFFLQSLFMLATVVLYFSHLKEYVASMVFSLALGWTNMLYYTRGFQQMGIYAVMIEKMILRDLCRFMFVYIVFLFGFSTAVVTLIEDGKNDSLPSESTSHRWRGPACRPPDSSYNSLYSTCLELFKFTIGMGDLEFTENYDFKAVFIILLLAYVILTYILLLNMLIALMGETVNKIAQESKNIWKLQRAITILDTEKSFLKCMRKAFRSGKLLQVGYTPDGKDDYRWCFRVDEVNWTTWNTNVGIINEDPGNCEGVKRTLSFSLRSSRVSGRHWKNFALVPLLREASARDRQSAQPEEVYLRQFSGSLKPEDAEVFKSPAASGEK

SMILES | remaining activity at 37.5 µM ([1]; Table 1) [%] | remaining activity at 37.5 µM ([1]; Table 2) [%] | pIC50 [2, 3] | pIC50 ([2]; Table 2) | % Increase in tail withdrawal latency (Sprague-Dawley rats) | change in vivo at 100 µmol/kg (Sprague-Dawley rats; [4]) [%] | change in vivo at 6 mg/kg (Sprague-Dawley rats; Rattus norvegicus, ip, read-out: % Increase in tail withdrawal latency) [%] | hTRPV1 H+ (max % remain) ([1]; Table 2) [%]
Cc1cc2c(NC(=O)N[C@H]3CC[C@@H](c4ccccc4)C3)c(F)ccc2cn1 [Example 27, 1-(6-fluoro-3-methylisoquinolin-5-yl)-3-[(1S,3R)-3-phenylcyclopentyl]urea] | 60 | 60 | 8.15 | 8.22 | − |  |  | 
CC(C)(C)c1ccc(Nc2ncnc3cc(-c4ncccc4C(F)(F)F)ccc23)cc1 [I, reference compound] |  | 1 |  |  |  | > 25 |  | 
Cn1c(=O)ccc2c(NC(=O)N[C@@H]3CC[C@@H](c4cccc(F)c4)C3)cccc21 [Example 78, 1-[(1R,3R)-3-(3-fluorophenyl)cyclopentyl]-3-(1-methyl-2-oxo-1,2-dihydroquinolin-5-yl)urea] | 78 | 78 | 8.19 | 8.15 |  | 10 to 25 |  | 
O=C(Nc1cccc2[nH]ncc12)N[C@@H]1C=C[C@H](c2ccccc2)C1 [Example 48, 1-(1H-indazol-4-yl)-3-[(1S,4R)-4-phenylcyclopent-2-en-1-yl]urea] | 49 | 49 | 7.38 | 7.38 | − |  |  | 
CN1CC[C@]23c4c5ccc(O)c4O[C@H]2[C@@H](O)C=C[C@H]3[C@H]1C5 [Morphine, reference compound] |  |  |  |  |  |  | > 25 | 
O=C(Nc1cccc2[nH]ncc12)N[C@@H]1CC[C@H](c2ccccc2)C1 [Example 7, 1-(1H-indazol-4-yl)-3-[(1R,3S)-3-phenylcyclopentyl]urea] | 32 | 32 | 8.05 | 8.05 | − |  |  | 
CC(C)(C)c1ccc2c(c1)CC[C@H]2NC(=O)Nc1cccc2[nH]ncc12 [J, reference compound] |  | 1 |  |  |  | > 25 |  | 
Cc1nc(Nc2cccc3c2C[C@H](O)CC3)oc1-c1ccc(C(F)(F)F)cc1 [K, reference compound] |  | 3 |  |  |  | > 25 |  | 
Cc1cc2c(NC(=O)N[C@@H]3CC[C@@H](c4ccccc4)C3)c(F)ccc2cn1 [Example 20, 1-(6-fluoro-3-methylisoquinolin-5-yl)-3-[(1R,3R)-3-phenylcyclopentyl]urea] | 32 | 32 | 8.30 | 8.30 | − |  |  | 
Cc1cccnc1N1CC=C(C(=O)Nc2ccc(S(=O)(=O)C(F)(F)F)cc2)CC1 [L, reference compound] |  | 2 |  |  |  | > 25 |  | 
CN1C(=O)CCc2c(NC(=O)N[C@H]3CC[C@H](c4ccccc4)C3)cccc21 [Example 96, 1-(1-methyl-2-oxo-1,2,3,4-tetrahydroquinolin-5-yl)-3-[(1S,3S)-3-phenylcyclopentyl]urea] | 66 | 66 | 7.20 | 7.20 |  | 10 to 25 |  | 
O=C(Nc1cccc2[nH]ncc12)N[C@@H]1CC[C@@H](c2ccccc2F)C1 [Example 66, 1-[(1R,3R)-3-(2-fluorophenyl)cyclopentyl]-3-(1H-indazol-4-yl)urea] | 29 | 29 | 8.09 | 8.10 |  | > 25 |  | 
O=C(Nc1cccc2c1C[C@@H](O)C2)N[C@@H]1CC[C@H](c2ccccc2)C1 [Example 2, 1-[(2S)-2-hydroxy-2,3-dihydro-1H-inden-4-yl]-3-[(1R,3S)-3-phenylcyclopentyl]urea] | 40 | 40 | 7.54 | 7.54 | − |  |  | 
CC(=O)Nc1nc2c(Oc3cc(-c4ccc(C(F)(F)F)cc4)ncn3)cccc2s1 [H, reference compound] |  |  |  |  |  | > 25 |  | 10
O=C(Nc1cccc2[nH]ncc12)N[C@H]1CC[C@@H](c2cccc(F)c2)C1 [Example 69, 1-[(1S,3R)-3-(3-fluorophenyl)cyclopentyl]-3-(1H-indazol-4-yl)urea] | 2 |  | 7.92 |  |  |  |  | 
O=C(Nc1cccc2c1C[C@@H](O)C2)N[C@H]1CC[C@H](c2ccccc2)C1 [Example 9, 1-[(2S)-2-hydroxy-2,3-dihydro-1H-inden-4-yl]-3-[(1S,3S)-3-phenylcyclopentyl]urea] | 14 |  | 6.69 |  |  |  |  | 
CN1C(=O)CCc2ccc(NC(=O)N[C@@H]3CC[C@@H](c4cccc(F)c4)C3)cc21 [Example 107, 1-[(1R,3R)-3-(3-fluorophenyl)cyclopentyl]-3-(1-methyl-2-oxo-1,2,3,4-tetrahydroquinolin-7-yl)urea] | 77 |  | < 4.43 |  |  |  |  | 
O=C(Nc1ccc2c(c1)NC(=O)C(N1CCOCC1)C2)N[C@@H]1CC[C@H](c2ccccc2)C1 (stereo partly drawn) [Example 142, 1-[3-(morpholin-4-yl)-2-oxo-1,2,3,4-tetrahydroquinolin-7-yl]-3-[(1R,3S)-3-phenylcyclopentyl]urea] | 66 |  | 6.94 |  |  |  |  | 
C[C@@]1(c2ccccc2)CC[C@H](NC(=O)Nc2cccc3[nH]ncc23)C1 [Example 72, 1-(1H-indazol-4-yl)-3-[(1S,3R)-3-methyl-3-phenylcyclopentyl]urea] | 22 |  | 7.10 |  |  |  |  | 
O=C(Nc1cccc2[nH]ccc12)N[C@@H]1CC[C@H](c2ccccc2)C1 [Example 137, 1-(1H-indol-4-yl)-3-[(1R,3S)-3-phenylcyclopentyl]urea] | 42 |  | 7.00 |  |  |  |  | 
O=C(Nc1ccc2c(c1)NC(=O)N(CCO)C2)N[C@H]1CC[C@@H](c2ccccc2)C1 [Example 113, 1-[3-(2-hydroxyethyl)-2-oxo-1,2,3,4-tetrahydroquinazolin-7-yl]-3-[(1S,3R)-3-phenylcyclopentyl]urea] | 50 |  | 5.11 |  |  |  |  | 
CN1C(=O)CCc2c(NC(=O)N[C@@H]3CC[C@@H](c4cccc(F)c4)C3)cccc21 [Example 97, 1-[(1R,3R)-3-(3-fluorophenyl)cyclopentyl]-3-(1-methyl-2-oxo-1,2,3,4-tetrahydroquinolin-5-yl)urea] | 46 |  | 7.16 |  |  |  |  | 
O=C1CCc2ccc(NC(=O)N[C@H]3CC[C@H](c4ccccc4)C3)cc2N1 [Example 12, 1-(2-oxo-1,2,3,4-tetrahydroquinolin-7-yl)-3-[(1S,3S)-3-phenylcyclopentyl]urea] | 65 |  | 6.68 |  |  |  |  | 
Cc1cc2c(NC(=O)N[C@H]3CC[C@@H](c4cccc(F)c4)C3)c(F)ccc2cn1 [Example 85, 1-(6-fluoro-3-methylisoquinolin-5-yl)-3-[(1S,3R)-3-(3-fluorophenyl)cyclopentyl]urea] | 21 |  | 8.05 |  |  |  |  | 
Cn1ncc2c(NC(=O)N[C@@H]3CC[C@@H](c4ccccc4F)C3)cccc21 [Example 103, 1-[(1R,3R)-3-(2-fluorophenyl)cyclopentyl]-3-(1-methyl-1H-indazol-4-yl)urea] | 19 |  | 7.85 |  |  |  |  | 
CN1C(=O)CCc2c(NC(=O)N[C@H]3CC[C@@H](c4ccccc4)C3)cccc21 [Example 95, 1-(1-methyl-2-oxo-1,2,3,4-tetrahydroquinolin-5-yl)-3-[(1S,3R)-3-phenylcyclopentyl]urea] | 34 |  | 7.24 |  |  |  |  | 
